From publication PMC2885440 (Journal of natural products, 2010)

Assay: Relative polarity on C12 reversed-phase HPLC
Assay type: physicochemical
Settings: C12 reversed-phase HPLC (Jupiter Proteo C12), linear gradient 50–80% MeOH in 0.05% TFA in 50 min

Substance: Lys-Ala-Leu1-Leu2-Trp (lariat or depsi) [Paltolide A]
- polarity among compounds 1–6: most polar
